Experimental data reported in US11535621B2, “Heterobicyclic amides as inhibitors of CD38” (Ribon Therapeutics, Inc., priority 2019, dated 2022).

target: Human CD38 (Homo sapiens (Human), UniProt P28907); assay: CD38 enzyme assay; assay type: biochemical; conditions: 2 nM CD38, NAD+ substrate, absorbance at 405 nm
Excerpt: [formula] where SUBcmpd is the subtracted value for the individual compound treated well, SUBmin is the average of the subtracted values of the 4-(((1r,4r)-4-(2-methoxyethoxy)cyclohexyl)amino)-1-methyl-6-(thiazol-5-yl)quinolin-2(1H)-one positive control wells and SUBmax is the average of the subtracted values of the DMSO negative control wells.
The % inhibition values were plotted as a function of compound concentration and the following 4-parameter fit was applied to derive the IC50 values:
[formula] where top and bottom are normally allowed to float, but may be fixed at 100 or 0 respectively in a 3-parameter fit. The Hill Coefficient is normally allowed to float but may also be fixed at 1 in a 3-parameter fit. Y is the % inhibition and X is the compound concentration.

Sequence of Human CD38 (P28907 whole entry): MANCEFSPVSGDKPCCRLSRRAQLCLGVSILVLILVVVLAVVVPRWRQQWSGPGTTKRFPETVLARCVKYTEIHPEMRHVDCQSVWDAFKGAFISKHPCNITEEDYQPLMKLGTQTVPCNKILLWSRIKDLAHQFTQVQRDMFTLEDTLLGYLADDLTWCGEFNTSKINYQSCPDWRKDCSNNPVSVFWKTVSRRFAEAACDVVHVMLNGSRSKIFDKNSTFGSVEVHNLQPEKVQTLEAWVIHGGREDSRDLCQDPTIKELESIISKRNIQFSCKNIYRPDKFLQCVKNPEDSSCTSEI

IC50 | SMILES
10 to 100 nM | O=C(N[C@H]1CCCOC1)c1nc(-n2ccnc2)nc2cc[nH]c12 (single isomer, unassigned) [Example 28a]
< 10 nM | O=C(N[C@@H]1CCCOC1)c1nc(-n2ccnc2)nc2cc[nH]c12 (single isomer, unassigned) [Example 28b]
10 to 100 nM | CC(C)[C@@H](O)CO[C@H]1CC[C@H](NC(=O)c2nc(-n3ccnc3)nc3cc[nH]c23)CC1 (single isomer, unassigned) [Example 119a]
10 to 100 nM | CC(C)[C@H](O)CO[C@H]1CC[C@H](NC(=O)c2nc(-n3ccnc3)nc3cc[nH]c23)CC1 (single isomer, unassigned) [Example 119b]
10 to 100 nM | C[C@@H](O)CO[C@H]1CC[C@H](NC(=O)c2nc(-n3ccnc3)nc3cc[nH]c23)CC1 (single isomer, unassigned) [Example 125a]
10 to 100 nM | CC(C)[C@@](C)(O)CO[C@H]1CC[C@H](NC(=O)c2nc(-n3ccnc3)nc3cc[nH]c23)CC1 (single isomer, unassigned) [Example 126a]
10 to 100 nM | C[C@@](O)(C(=O)N[C@H]1CC[C@H](NC(=O)c2nc(-n3ccnc3)nc3cc[nH]c23)CC1)C(F)(F)F (single isomer, unassigned) [Example 127a]
10 to 100 nM | C[C@H](O)CO[C@H]1CC[C@H](NC(=O)c2nc(-n3ccnc3)cc3cn[nH]c23)CC1 (single isomer, unassigned) [Example 207]
10 to 100 nM | C[C@@H](O)CO[C@H]1CC[C@H](NC(=O)c2nc(-n3ccnc3)cc3cn[nH]c23)CC1 (single isomer, unassigned) [Example 208]
< 10 nM | C[C@@H](O)[C@H]1CC[C@H](NC(=O)c2nc(-n3ccnc3)nc3ccsc23)CC1 (single isomer, unassigned) [Example 267a]
10 to 100 nM | C[C@H](O)[C@H]1CC[C@H](NC(=O)c2nc(-n3ccnc3)nc3ccsc23)CC1 (single isomer, unassigned) [Example 267b]
100 to 1000 nM | COCCO[C@H]1CC[C@H](NC(=O)c2cc(-n3ccnc3)cc3nc[nH]c23)CC1 [Example 1, 5-(1H-Imidazol-1-yl)-N-((1r,4r)-4-(2-methoxyethoxy)cyclohexyl)-1H-benzo[d]imidazole-7-carboxamide]
> 1000 nM | O=C(NCc1c(F)cccc1C(F)(F)F)c1cc(-n2ccnc2)cc2nc[nH]c12 [Example 2, N-(2-Fluoro-6-(trifluoromethyl)benzyl)-5-(1H-imidazol-1-yl)-1H-benzo[d]imidazole-7-carboxamide]
100 to 1000 nM | O=C(NCc1c(F)cccc1C(F)(F)F)c1cc(-c2cncs2)cc2nc[nH]c12 [Example 3, N-[[2-Fluoro-6-(trifluoromethyl)phenyl]methyl]-6-thiazol-5-yl-3H-benzimidazole-4-carboxamide]
100 to 1000 nM | COCCO[C@H]1CC[C@H](NC(=O)c2cc(-c3cncs3)cc3nc[nH]c23)CC1 [Example 4, N-((1r,4r)-4-(2-Methoxyethoxy)cyclohexyl)-5-(thiazol-5-yl)-1H-benzo[d]imidazole-7-carboxamide]
100 to 1000 nM | O=C(NCc1c(F)cccc1C(F)(F)F)c1cc(-n2ccnc2)cc2cc[nH]c12 [Example 5, N-(2-Fluoro-6-(trifluoromethyl)benzyl)-5-(1H-imidazol-1-yl)-1H-indole-7-carboxamide]
100 to 1000 nM | COCCO[C@H]1CC[C@H](NC(=O)c2cc(-n3ccnc3)cc3cc(C)[nH]c23)CC1 [Example 9, 5-(1H-Imidazol-1-yl)-N-((1r,4r)-4-(2-methoxyethoxy)cyclohexyl)-2-methyl-1H-indole-7-carboxamide]
10 to 100 nM | COCCO[C@H]1CC[C@H](NC(=O)c2cc(-n3ccnc3)nc3cc[nH]c23)CC1 [Example 10, 5-(1H-imidazol-1-yl)-N-((1r,4r)-4-(2-methoxyethoxy)cyclohexyl)-1H-pyrrolo[3,2-b]pyridine-7-carboxamide]
10 to 100 nM | Cc1cc2cc(-c3cncs3)cc(C(=O)NCc3c(F)cccc3C(F)(F)F)c2[nH]1 [Example 11, N-(2-Fluoro-6-(trifluoromethyl)benzyl)-2-methyl-5-(thiazol-5-yl)-1H-indole-7-carboxamide]
10 to 100 nM | COCCO[C@H]1CC[C@H](NC(=O)c2nc(-n3ccnc3)cc3cc[nH]c23)CC1 [Example 12, 5-(1H-Imidazol-1-yl)-N-((1r,4r)-4-(2-methoxyethoxy)cyclohexyl)-1H-pyrrolo[2,3-c]pyridine-7-carboxamide]

IC50 | SMILES
100 to 1000 nM | COCCO[C@H]1CC[C@H](NC(=O)c2cc(-c3cncs3)cc3nc(C)[nH]c23)CC1 [Example 13, N-((1r,4r)-4-(2-Methoxyethoxy)cyclohexyl)-2-methyl-5-(thiazol-5-yl)-1H-benzo[d]imidazole-7-carboxamide]
10 to 100 nM | COCCO[C@H]1CC[C@H](NC(=O)c2nc(-n3ccnc3)nc3nc[nH]c23)CC1 [Example 14, 2-(1H-Imidazol-1-yl)-N-((1r,4r)-4-(2-methoxyethoxy)cyclohexyl)-7H-purine-6-carboxamide]
100 to 1000 nM | O=C(NCc1c(F)cccc1C(F)(F)F)c1cc(-n2ccnc2)nc2cn[nH]c12 [Example 15, N-(2-Fluoro-6-(trifluoromethyl)benzyl)-5-(1H-imidazol-1-yl)-1H-pyrazolo[4,3-b]pyridine-7-carboxamide]
10 to 100 nM | COCCO[C@H]1CC[C@H](NC(=O)c2nc(-n3ccnc3)cc3cn[nH]c23)CC1 [Example 16, 5-(1H-Imidazol-1-yl)-N-((1r,4r)-4-(2-methoxyethoxy)cyclohexyl)-1H-pyrazolo[3,4-c]pyridine-7-carboxamide]
100 to 1000 nM | COCCO[C@H]1CC[C@H](NC(=O)c2cc(-c3cncs3)nc3cn[nH]c23)CC1 [Example 17, N-((1r,4r)-4-(2-Methoxyethoxy)cyclohexyl)-5-(thiazol-5-yl)-1H-pyrazolo[4,3-b]pyridine-7-carboxamide]
10 to 100 nM | COCCO[C@H]1CC[C@H](NC(=O)c2nc(-n3ccnc3)nc3ccsc23)CC1 [Example 18, 2-(1H-Imidazol-1-yl)-N-((1r,4r)-4-(2-methoxyethoxy)cyclohexyl)thieno[3,2-d]pyrimidine-4-carboxamide]
10 to 100 nM | COCCO[C@H]1CC[C@H](NC(=O)c2cc(-n3ccnc3)cc3cc(CN)[nH]c23)CC1 [Example 19, 2-(Aminomethyl)-5-(1H-imidazol-1-yl)-N-((1r,4r)-4-(2-methoxyethoxy)cyclohexyl)-1H-indole-7-carboxamide]
100 to 1000 nM | O=C(NCc1c(F)cccc1C(F)(F)F)c1nc(-c2cncs2)nc2ccsc12 [Example 20, N-(2-Fluoro-6-(trifluoromethyl)benzyl)-2-(thiazol-5-yl)thieno [3,2-d]pyrimidine-4-carboxamide]
100 to 1000 nM | COCCO[C@H]1CC[C@H](NC(=O)c2nc(-c3cncs3)cc3cn[nH]c23)CC1 [Example 21, N-((1r,4r)-4-(2-Methoxyethoxy)cyclohexyl)-5-(thiazol-5-yl)-1H-pyrazolo[3,4-c]pyridine-7-carboxamide]
10 to 100 nM | COCCO[C@H]1CC[C@H](NC(=O)c2nc(-n3ccnc3)nc3ccn(C)c23)CC1 [Example 22, 2-(1H-Imidazol-1-yl)-N-((1r,4r)-4-(2-methoxyethoxy)cyclohexyl)-5-methyl-5H-pyrrolo[3,2-d]pyrimidine-4-carboxamide]
10 to 100 nM | COCCO[C@H]1CC[C@H](NC(=O)c2nc(-n3ccnc3)nc3cn[nH]c23)CC1 [Example 23, 5-(1H-Imidazol-1-yl)-N-((1r,4r)-4-(2-methoxyethoxy)cyclohexyl)-1H-pyrazolo[4,3-d]pyrimidine-7-carboxamide]
10 to 100 nM | COCCO[C@H]1CC[C@H](NC(=O)c2cc(-n3ccnc3)nc3ccsc23)CC1 [Example 24, 5-(1H-Imidazol-1-yl)-N-((1r,4r)-4-(2-methoxyethoxy)cyclohexyl)thieno[3,2-b]pyridine-7-carboxamide]
100 to 1000 nM | COCCO[C@H]1CC[C@H](NC(=O)c2nc(-n3ccnc3)nc3ncsc23)CC1 [Example 25, 5-(1H-Imidazol-1-yl)-N-((1r,4r)-4-(2-methoxyethoxy)cyclohexyl)thiazolo[4,5-d]pyrimidine-7-carboxamide]
10 to 100 nM | COCCO[C@H]1CC[C@H](NC(=O)c2nc(-n3ccnc3)cc3nc[nH]c23)CC1 [Example 26, 6-(1H-Imidazol-1-yl)-N-((1r,4r)-4-(2-methoxyethoxy)cyclohexyl)-3H-imidazo[4,5-c]pyridine-4-carboxamide]
< 10 nM | O=C(NC1CCCOC1)c1nc(-n2ccnc2)nc2cc[nH]c12 (stereo not drawn) [Example 27, 2-(1H-Imidazol-1-yl)-N-(tetrahydro-2H-pyran-3-yl)-5H-pyrrolo[3,2-d]pyrimidine-4-carboxamide]
100 to 1000 nM | COCCO[C@H]1CC[C@H](NC(=O)c2cc(-n3ccnc3)c(F)c3cc[nH]c23)CC1 [Example 29, 4-Fluoro-5-(1H-imidazol-1-yl)-N-((1r,4r)-4-(2-methoxyethoxy)cyclohexyl)-1H-indole-7-carboxamide]
100 to 1000 nM | COCCO[C@H]1CC[C@H](NC(=O)c2cc(-n3ccnc3)cc3nc(C)[nH]c23)CC1 [Example 30, 5-(1H-imidazol-1-yl)-N-((1r,4r)-4-(2-methoxyethoxy)cyclohexyl)-2-methyl-1H-benzo[d]imidazole-7-carboxamide]
10 to 100 nM | O=C(NCc1c(F)cccc1C(F)(F)F)c1cc(-c2cncs2)cc2cc[nH]c12 [Example 31, N-(2-Fluoro-6-(trifluoromethyl)benzyl)-5-(thiazol-5-yl)-1H-indole-7-carboxamide]
10 to 100 nM | COCCO[C@H]1CC[C@H](NC(=O)c2nc(-c3cncs3)nc3cc[nH]c23)CC1 [Example 32, N-((1r,4r)-4-(2-Methoxyethoxy)cyclohexyl)-2-(thiazol-5-yl)-5H-pyrrolo[3,2-d]pyrimidine-4-carboxamide]
